In US10144706B2 (BRISTOL-MYERS SQUIBB COMPANY, priority 2016, dated 2018):
Where a name gives a salt, the structure may show the parent alone.

Target: T1, PD-1/PD-L1 interaction (PD-1-Ig / PD-L1-His) (Homo sapiens, UniProt Q9NZQ7)
T1 construct: hPDL1(18-239)-TVMV-His; TVMV protease site linker (C); made in house; host or cells: HEK293T
Experiment: PD-1/PD-L1 Homogenous Time-Resolved Fluorescence (HTRF) binding assay
Conditions: IC50 range class; PD-L1-His 10 nM, PD-1-Ig 20 nM; read-out: Range or IC50
Procedure, shortened: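 Human PD-L1-His (10 nM final) was pre-incubated with inhibitor for 15 min, then PD-1-Ig (20 nM final) was added for a further 15 min in dPBS with 0.1% BSA and 0.05% Tween-20. Binding was detected by HTRF using Eu-cryptate anti-Ig (1 nM) and APC anti-His (20 nM).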

T1 sequence (Q9NZQ7 with tags, fused parts or gaps): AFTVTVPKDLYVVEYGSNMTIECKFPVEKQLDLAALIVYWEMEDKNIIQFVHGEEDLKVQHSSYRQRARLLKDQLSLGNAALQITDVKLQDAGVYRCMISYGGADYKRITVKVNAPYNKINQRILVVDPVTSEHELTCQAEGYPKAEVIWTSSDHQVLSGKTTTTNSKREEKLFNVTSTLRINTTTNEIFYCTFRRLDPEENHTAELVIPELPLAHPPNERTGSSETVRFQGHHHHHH

IC50	SMILES
90.1 to 1000 nM	Cc1c(OCCCN[C@@H](CO)C(C)C)cccc1-c1cccc(OCCCN2CC[C@@H](O)C2)c1C [Example 2055, (R)-1-(3-((3′-(3-(((R)-1-hydroxy-3-methylbutan-2-yl)amino)propoxy)-2,2′-dimethyl-[1,1′-biphenyl]-3-yl)oxy)propyl)pyrrolidin-3-ol]
90.1 to 1000 nM	Cc1c(OCCCNCCc2ccccc2)cccc1-c1cccc(OCCCN2CC[C@@H](O)C2)c1C [Example 2041, (R)-1-(3-((2,2′-dimethyl-3′-(3-(phenethylamino)propoxy)-[1,1′-biphenyl]-3-yl)oxy)propyl)pyrrolidin-3-ol]
90.1 to 1000 nM	Cc1c(COc2cc(OCc3cc(F)cc(F)c3)c(CNC(CO)CO)cc2Cl)cccc1-c1cccc(COc2cc(OCc3cc(F)cc(F)c3)c(CNC(CO)CO)cc2Cl)c1C [Example 5003, 2,2′-((((((2,2′-dimethyl-[1,1′-biphenyl]-3,3′-diyl)bis(methylene))bis(oxy))bis(5-chloro-2-((3,5-difluorobenzyl)oxy)-4,1-phenylene))bis(methylene))bis(azanediyl))bis(propane-1,3-diol)]
20.1 to 90 nM	Cc1c(OCCCN2CC[C@@H](O)C2)cccc1-c1cccc(OCCCN2CCCCC2CO)c1C (mixture of isomers) [Example 2025, (3R)-1-(3-((3′-(3-(2-(hydroxymethyl)piperidin-1-yl)propoxy)-2,2′-dimethyl-[1,1′-biphenyl]-3-yl)oxy)propyl)pyrrolidin-3-ol]
0.04 to 20 nM	COc1cc(OCc2cccc(-c3cccc(COc4cc(OC)c(CN[C@@H](CCO)C(=O)O)cc4Cl)c3C)c2C)c(Cl)cc1CN[C@@H](CCO)C(=O)O [Example 5036, (2S,2′S)-2,2′-((((((2,2′-dimethyl-[1,1′-biphenyl]-3,3′-diyl)bis(methylene))bis(oxy))bis(5-chloro-2-methoxy-4,1-phenylene))bis(methylene))bis(azanediyl))bis(4-hydroxybutanoic acid)]
20.1 to 90 nM	Cc1c(OCCCN2CC[C@@H](O)C2)cccc1-c1cccc(OCCCN2CCC(O)(c3ccccc3)C2)c1C (stereo partly drawn) [Example 3028, 1-(3-((3′-(3-((R)-3-hydroxypyrrolidin-1-yl)propoxy)-2,2′-dimethyl-[1,1′-biphenyl]-3-yl)oxy)propyl)-3-phenylpyrrolidin-3-ol, 2 TFA]
0.04 to 20 nM	N#Cc1cncc(COc2cc(OCc3cccc(-c4cccc(COc5cc(O)c(CNC(CCO)C(=O)O)cc5Cl)c4Cl)c3Cl)c(Cl)cc2CNC(CCO)C(=O)O)c1 (centres unmarked) [Example 41180]
0.04 to 20 nM	Cc1c(OCCCNCCc2ccncc2)cccc1-c1cccc(OCCCN2CC[C@@H](O)C2)c1C [Example 2035, (R)-1-(3-((2,2′-dimethyl-3′-(3-((2-(pyridin-4-yl)ethyl)amino)propoxy)-[1,1′-biphenyl]-3-yl)oxy)propyl)pyrrolidin-3-ol]
0.04 to 20 nM	Cc1c(COc2cc(OCc3cncc(C#N)c3)c(CN3C[C@@H](C)C[C@H]3C(=O)O)cc2Cl)cccc1-c1cccc(COc2cc(OCc3cncc(C#N)c3)c(CN3C[C@@H](C)C[C@H]3C(=O)O)cc2Cl)c1C [Example 40430]
0.04 to 20 nM	Cc1c(COc2cc(OCc3cncc(C#N)c3)c(CNC(CCO)C(=O)O)cc2Cl)cccc1-c1cccc(COc2cc(OCc3cncc(C#N)c3)c(CN(CC3CC3)C(CCO)C(=O)O)cc2Cl)c1C (centres unmarked) [Example 40840]
1000 to 10000 nM	Cc1c(OCCCNCc2cccnc2)cccc1-c1cccc(OCCCN2CC[C@@H](O)C2)c1C [Example 2050, (R)-1-(3-((2,2′-dimethyl-3′-(3-((pyridin-3-ylmethyl)amino)propoxy)-[1,1′-biphenyl]-3-yl)oxy)propyl)pyrrolidin-3-ol]
1000 to 10000 nM	Cc1c(OCCCN2CC[C@@H](O)C2)cccc1-c1cccc(OCCCN2CC(O)C[C@H]2C(=O)O)c1C (stereo in doubt) [Example 2051, (2S,4R)-4-hydroxy-1-(3-((3′-(3-((R)-3-hydroxypyrrolidin-1-yl)propoxy)-2,2′-dimethyl-[1,1′-biphenyl]-3-yl)oxy)propyl)pyrrolidine-2-carboxylic acid]
90.1 to 1000 nM	Cc1c(OCCCN[C@@H](CO)c2ccccc2)cccc1-c1cccc(OCCCN2CC[C@@H](O)C2)c1C [Example 2069, (R)-1-(3-((3′-(3-(((R)-2-hydroxy-1-phenylethyl)amino)propoxy)-2,2′-dimethyl-[1,1′-biphenyl]-3-yl)oxy)propyl)pyrrolidin-3-ol]
1000 to 10000 nM	Cc1ccc(OCCCN2CC[C@@H](O)C2)cc1-c1cccc(OCCCN2CC[C@@H](O)C2)c1C [Example 1004, (3R,3′R)-1,1′-(((2,6′-dimethyl-[1,1′-biphenyl]-3,3′-diyl)bis(oxy))bis(propane-3,1-diyl))bis(pyrrolidin-3-ol)]
0.04 to 20 nM	CC(CO)(CO)NCc1cc(Cl)c(OCc2cccc(-c3cccc(COc4cc(OCc5cncc(C#N)c5)c(CNC(C)(CO)CO)cc4Cl)c3)c2)cc1OCc1cncc(C#N)c1 [Example 40010]
> 10000 nM	Cc1c(OCCCN2C[C@H](O)C[C@H]2C(=O)O)cccc1-c1cccc(OCCCN2C[C@H](O)C[C@H]2C(=O)O)c1Cl [Example 1003, (2S,2′S,4R,4′R)-1,1′-(((2-chloro-2′-methyl-[1,1′-biphenyl]-3,3′-diyl)bis(oxy))bis(propane-3,1-diyl))bis(4-hydroxypyrrolidine-2-carboxylic acid)]

IC50	SMILES
90.1 to 1000 nM	Cc1c(OCCCN[C@@H](Cc2cccnc2)C(=O)O)cccc1-c1cccc(OCCCN2CC[C@@H](O)C2)c1C [Example 2117, (S)-2-((3-((3′-(3-((R)-3-hydroxypyrrolidin-1-yl)propoxy)-2,2′-dimethyl-[1,1′-biphenyl]-3-yl)oxy)propyl)amino)-3-(pyridin-3-yl)propanoic acid]
0.04 to 20 nM	CCCN(Cc1cc(Cl)c(OCc2cccc(-c3cccc(COc4cc(OCc5cncc(C#N)c5)c(CN(CCC)C(CCO)C(=O)O)cc4Cl)c3C)c2C)cc1OCc1cncc(C#N)c1)C(CCO)C(=O)O (centres unmarked) [Example 40820]
20.1 to 90 nM	CC(=O)c1cc(Cl)c(OCc2cccc(-c3cccc(COc4cc(OCc5cncc(C#N)c5)c(CN[C@@H](C(=O)O)[C@H](C)O)cc4Cl)c3C)c2C)cc1OCc1cncc(C#N)c1 [Example 60090]
0.04 to 20 nM	Cc1c(OCCCN2CC[C@@H](O)C2)cccc1-c1cccc(OCCCN2CC[C@@H](O)C2)c1C [Example 3001, (3R,3′R)-1,1′-(((2,2′-dimethyl-[1,1′-biphenyl]-3,3′-diyl)bis(oxy))bis(propane-3,1-diyl))bis(pyrrolidin-3-ol)]
0.04 to 20 nM	Cc1c(COc2cc(OCc3cncc(C#N)c3)c(CO)cc2Cl)cccc1-c1cccc(COc2cc(OCc3cncc(C#N)c3)c(CN(CC(C)C)C(CCO)C(=O)O)cc2Cl)c1C (centres unmarked) [Example 50170]
20.1 to 90 nM	Cc1c(OCCCN(CCO)CCC(C)C)cccc1-c1cccc(OCCCN2CC[C@@H](O)C2)c1C [Example 2073, (R)-1-(3-((3′-(3-((2-hydroxyethyl)(isopentyl)amino)propoxy)-2,2′-dimethyl-[1,1′-biphenyl]-3-yl)oxy)propyl)pyrrolidin-3-ol]
20.1 to 90 nM	Cc1c(OCCCN(C)Cc2ccccn2)cccc1-c1cccc(OCCCN2CC[C@@H](O)C2)c1C [Example 2062, (R)-1-(3-((2,2′-dimethyl-3′-(3-(methyl(pyridin-2-ylmethyl)amino)propoxy)-[1,1′-biphenyl]-3-yl)oxy)propyl)pyrrolidin-3-ol]
20.1 to 90 nM	COC(=O)C1CCN(Cc2cc(Cl)c(OCc3cccc(-c4cccc(COc5cc(OCc6cncc(C#N)c6)c(CN6CCC(C(=O)OC)C(O)C6)cc5Cl)c4C)c3C)cc2OCc2cncc(C#N)c2)CC1O (centres unmarked) [Example 40310]
1000 to 10000 nM	N#Cc1cncc(COc2cc(OCc3cccc(-c4cccc(COc5cc(OCc6cncc(C#N)c6)c(C(=O)N6CCSCC6)cc5Cl)c4Cl)c3Cl)c(Cl)cc2C(=O)N2CCSCC2)c1 [Example 80220]
20.1 to 90 nM	Cc1c(OCCCN2CCN(CCO)CC2)cccc1-c1cccc(OCCCN2CC[C@@H](O)C2)c1C [Example 2063, (R)-1-(3-((3′-(3-(4-(2-hydroxyethyl)piperazin-1-yl)propoxy)-2,2′-dimethyl-[1,1′-biphenyl]-3-yl)oxy)propyl)pyrrolidin-3-ol]
0.04 to 20 nM	Cc1c(COc2cc(OCc3cncc(C#N)c3)c(CNC(Cc3c[nH]c4ccccc34)C(=O)O)cc2Cl)cccc1-c1cccc(COc2cc(OCc3cncc(C#N)c3)c(CNC(Cc3c[nH]c4ccccc34)C(=O)O)cc2Cl)c1C (centres unmarked) [Example 40460]
0.04 to 20 nM	COCC(O)CNCCCOc1cccc(-c2cccc(OCCCNCC(O)COC)c2C)c1C (centres unmarked) [Example 2094, 3,3′-((((2,2′-dimethyl-[1,1′-biphenyl]-3,3′-diyl)bis(oxy))bis(propane-3,1-diyl))bis(azanediyl))bis(1-methoxypropan-2-ol)]
90.1 to 1000 nM	Cc1c(OCCCNC[C@H](O)C(=O)O)cccc1-c1cccc(OCCCN2CC[C@@H](O)C2)c1C [Example 2045, (S)-2-hydroxy-3-((3-((3′-(3-((R)-3-hydroxypyrrolidin-1-yl)propoxy)-2,2′-dimethyl-[1,1′-biphenyl]-3-yl)oxy)propyl)amino)propanoic acid]
0.04 to 20 nM	Cc1c(OCCCN2CC[C@@H](O)C2)cccc1-c1cccc(OCCCN2CC[C@@H](F)C2)c1C [Example 3035, (R)-1-(3-((3′-(3-((R)-3-fluoropyrrolidin-1-yl)propoxy)-2,2′-dimethyl-[1,1′-biphenyl]-3-yl)oxy)propyl)pyrrolidin-3-ol]
20.1 to 90 nM	Cc1c(OCCCN2CCC(O)(CC(=O)O)C2)cccc1-c1cccc(OCCCN2CCC(O)(CC(=O)O)C2)c1Cl (centres unmarked) [Example 1001, 2,2′-((((2-chloro-2′-methyl-[1,1′-biphenyl]-3,3′-diyl)bis(oxy))bis(propane-3,1-diyl))bis(3-hydroxypyrrolidine-1,3-diyl))diacetic acid]
1000 to 10000 nM	Cc1c(OCCCN2CC[C@@H](O)C2)cccc1-c1cccc(OCCCc2ccccc2)c1 [Example 3027, (R)-1-(3-((2-methyl-3′-(3-phenylpropoxy)-[1,1′-biphenyl]-3-yl)oxy)propyl)pyrrolidin-3-ol]
